# Patent US20120258960A1, “NOVEL MULTIFUNCTIONAL PEPTIDASE INHIBITORS, ESPECIALLY FOR MEDICAL USE” (IMTM GMBH, priority 2009, published 2012)
# Test system: human peripheral blood mononuclear cells
# Assay: Inhibition of proliferation of PHA-stimulated mononuclear cells (BrdU incorporation)
# Type: cell-based
# Conditions: PBMC, 1 μg/ml Phytohemagglutinine, 48 hours, test compounds 0.1-250 μM, read-out: MNC IC50
# Method: (§1) Peripheral blood mononuclear cells (PBMC) from healthy human volunteers were freshly isolated by density gradient centrifugation. T lymphocytes (T cells, Tc) were isolated from PBMC fractions via nylon wool adherence. Cells were cultured in standard cell culture media and stimulated by addition of 1 μg/ml Phytohemagglutinine for 48 hours in 96 well flat-bottom microtitre plates. Test compounds were added at concentration ranges from 0.1-250 μM over the total assay period.
# DNA synthesis of proliferating PBMC was assessed by incorporation of nucleotide analogue bromdesoxyuridine (BrdU) and subsequent detection of optical density (OD) at 450 nm.
# (§2) Data output was based on raw data and calculation of relative proliferation response in relation to PHA-activated T cells in the absence of test compound (100% control).
# (§3) The […] value of proliferation suppression was assessed by graphical evaluation.
row,SMILES,IC50
1,NC(CC(=O)N1CCN(C(=O)CC(O)C(N)Cc2ccccc2)CC1)Cc1ccccc1 (stereo not drawn) [drawing 222],135 µM

# Test system: T lymphocytes
# Assay: Inhibition of proliferation of PHA-stimulated T lymphocytes (tritium thymidine incorporation)
# Type: cell-based
# Conditions: Homo sapiens, T-lymphocyte, 1 μg/ml Phytohemagglutinine, 48 hours, test compounds 0.1-250 μM, read-out: T cells IC50
# Method: as §1
# DNA synthesis of proliferating T cells was determined by incorporation of radio labelled tritium thymidine and subsequent radio detection.
# as §2, §3
row,SMILES,IC50
1,NC(CC(=O)N1CCN(C(=O)CC(O)C(N)Cc2ccccc2)CC1)Cc1ccccc1 (stereo not drawn) [drawing 222],157 µM

# Test system: Sprague-Dawley rats
# Assay: Infarct volume after transient focal cerebral ischemia (endothelin 1-induced middle cerebral artery occlusion, eMCAO)
# Type: in vivo
# Conditions: cortex, 7 days after eMCAO, % of vehicle control (100%), mean ± S.E.M.; 2 μl of 10 mmol/l intracerebroventricularly during ischemia, 6 and 24 h after reperfusion
# Method: Studies were performed on male Sprague-Dawley rats (250 to 280 g) obtained from Harlan Winkelmann (Borchen, Germany). The animals were maintained under constant environmental conditions with ambient temperature of 21±2° C. and relative humidity of 40%. They were housed with a 12-h light-dark cycle and given food and water ad libitum.
# For stock solution of the compounds, a compound determined for use in the study (25 mmol) was dissolved in dimethyl sulfoxide (DMSO, SigmaAldrich, Germany) and diluted with 0.1 M phosphate buffer saline (PBS, pH 7.4) to a final volume of 10 mmol/l. 2 μl of a 10 mmol/l test compound PBS/DMSO solution was administered intra-cerebroventricularly at different time points after the induction of transient focal cerebral ischemia. If not otherwise stated, all other chemicals were of highest available purity.
# The procedure for the induction of transient focal cerebral ischemia by occlusion of the middle cerebral artery via microinjection of endothelin 1 adjacent to the middle cerebral artery was modified from that published previously by Sharkey and Butcher, 1995. Anesthesia was induced with halothane in a mixture of nitrous oxide/oxygen (70:30, v/v) and maintained with 2 to 3% halothane during the following procedures. Rats were placed in a Kopf stereotaxic frame and further anesthetized via nose cone. For the induction of focal cerebral ischemia, a burr hole was drilled (1 mm diameter) into the skull (coordinates: anterior 0.90 mm from bregma, lateral 5.2 mm to satura sagittalis), and the dura was carefully opened. A 29-gauge cannula was lowered 7.5 mm below the dura according to the rat brain atlas of Paxinos and Watson (31). To induce occlusion of the middle cerebral artery, rats received an injection of […] of endothelin 1 (ED-1, Sigma-Aldrich) in 3 μl of 0.1 M phosphate-buffered saline, pH 7.4, over a time period of 5 min. After a further 5 min, the cannula was slowly withdrawn.
# For intracerebroventricular application of the compounds selected, a second burr hole was drilled into the skull (coordinates: posterior 0.80 mm from bregma, lateral 1.5 mm to satura sagittalis), and a second 29-gauge cannula was lowered 4.5 mm below the dura. Intracerebroventricular applications of selected compounds (2 μl of a 10 mmol/l PBS/DMSO solution, pH 7.4) were performed during ischemia, 6 and 24 h after reperfusion.
# After a survival time of 7 days after endothelin-induced middle cerebral artery occusion (eMCAO), animals were anesthetized by an intraperitonial injection of pentobarbital and perfusion-fixed transcardially with saline, followed by 4% paraformaldehyde in 0.1 M phosphate buffer saline, pH 7.4. Brains were then removed carefully, post-fixed in the same fixative for 2 h, and placed in a rodent brain matrix (rat, Activational Systems Inc., Scientific Instrumentation). 1-mm coronal brain slices were cut with a razor blade at 14 predetermined anterior-posterior levels. After cryoprotection in 30% sucrose, slices were rapidly frozen in isopentane and stored at −80° C. Four to five cryostat sections (30 μm) from each brain slice were cut in a cryo microtome and stained with toluidine blue.
# The extent of cortical damage following ischemic injury was documented with microphotographic images from the Nissl-stained slices showing the anterior-posterior level according to the brain atlas of Paxinos and Watson (31). The volume of cortical infarct was determined by an operator blinded to the group composition.
# The extent of the infarct area at each level was calculated by integrating of the area of damage at each stereotactic level and the distances between the various levels. Using a light microscope (Nikon, Eclipse TE 3000) equipped with a 4× objective, the image analysis was performed with a computer-assisted image analysis system (Lucia software, Version 4.2.1).
# The data were statistically analyzed by non-paired Student's t tests. […]
row,SMILES,Infarct Volume (%)
1,CC(C)(NC(=O)CC(N)Cc1ccccc1)C(C)(C)NC(=O)C(O)C(N)Cc1ccccc1 (stereo not drawn) [drawing 286],70.7 ± 6.1 %
2,CCCCCCCCCCCCCCCC(=O)OC(C(=O)NCC(C)(C)CNC(=O)CC(N)Cc1cc(F)ccc1F)C(N)Cc1ccccc1 (stereo not drawn) [drawing 288],58.6 ± 19.7 %
3,NC(CC(=O)NC1CCCC(NC(=O)C(O)C(N)Cc2ccccc2)C1)Cc1cc(F)ccc1F (stereo not drawn) [drawing 291],64.2 ± 14.6 %
4,CCCCCCCCCCCCCCCC(=O)NC(CC(=O)NCC(C)(C)CNC(=O)C(O)C(Cc1ccccc1)NC(=O)CCCCCCCCCCCCCCC)Cc1cc(F)ccc1F (stereo not drawn) [drawing 290],75.6 ± 16.6%
5,CC(C)(CNCC(N)Cc1cc(F)ccc1F)CNC(=O)C(O)C(N)Cc1ccccc1 (stereo not drawn) [drawing 292],59.9 ± 16.1 %
6,CCCCCCCCCCCCCC(=O)NC(CC(=O)NCC(C)(C)CNC(=O)C(O)C(Cc1ccccc1)NC(=O)CCCCCCCCCCCCC)Cc1cc(F)ccc1F (stereo not drawn) [drawing 289],60.7 ± 17.1 %
7,NC(CC(=O)NCCCCNC(=O)C(O)C(N)Cc1ccccc1)Cc1cc(F)ccc1F (stereo not drawn) [drawing 287],73.5 ± 5.7 %
